Assay results: US11040033B2 (Gilead Sciences, Inc., priority 2017, dated 2021)

target: T1, IDO1 (Homo sapiens, UniProt P14902); assay: Cell-based (HeLa) assay for measurement of IDO1 inhibition (kynurenine levels in supernatant after IFNγ induction); conditions: H1-HeLa cells, IFNγ-induced IDO1, 48 hour incubation, kynurenine absorbance at 480 nm; geometric mean of a minimum of four determinations
T1 construct: HeLa cells were treated with a test compound in the presence of IFNγ, which induces IDO1 expression; endogenous in cells; host or cells: H1-HeLa cells (ATCC #CRL-1958), induced with IFNγ
T1 sequence (P14902 whole entry): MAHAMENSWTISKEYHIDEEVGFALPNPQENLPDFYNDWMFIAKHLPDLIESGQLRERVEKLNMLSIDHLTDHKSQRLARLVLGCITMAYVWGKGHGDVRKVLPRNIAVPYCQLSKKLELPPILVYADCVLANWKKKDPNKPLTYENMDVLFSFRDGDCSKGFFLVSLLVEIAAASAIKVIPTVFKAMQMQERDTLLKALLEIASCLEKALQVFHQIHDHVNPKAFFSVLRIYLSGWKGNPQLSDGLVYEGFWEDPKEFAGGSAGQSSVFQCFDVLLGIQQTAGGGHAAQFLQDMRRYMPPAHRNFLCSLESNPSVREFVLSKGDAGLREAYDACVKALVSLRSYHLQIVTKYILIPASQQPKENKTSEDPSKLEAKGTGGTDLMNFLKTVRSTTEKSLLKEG
Experimental: To measure IDO1 inhibition in tissue culture, HeLa cells were treated with a test compound in the presence of IFNγ, which induces IDO1 expression. Following incubation, cell supernatants were assayed for kynurenine levels, an indicator of IDO1 activity.
H1-HeLa cells (ATCC #CRL-1958) were seeded in 384-well plates (Greiner #82051-282) at a volume […] (Corning #15-018-CM) supplemented with 10% FBS (Corning #35-011-CV) and 1% P/S/G (Corning #30-009-CL) at a density of 1,250 cells/well and incubated overnight at 37° C., 5% CO2/100% humidity. The following day, the test compounds were added in DMSO (0.5% final) at various concentrations, and IDO1 was inducibly expressed by the addition of 50 uL/well of 50 ng/mL of INFγ(Peprotech #300-02) in cell plating media. As a positive control, 50 uL of the cell plating media without IFNγ was added to several wells. Following a 48 hour incubation, the plates were spun down at 1,200 RPM for 5 min at 10° C. 65 μL/well of the supernatant was then transferred to new 384-well plates (Thermo #262160) that contained 10 uL/well of 30% TCA (Sigma #T0699), and the plates were sealed and incubated at 60° C. for 30 min. The plates were then centrifuged for 15 min at 2,000 RPM at 10° C. 40 μL/well of the supernatant was transferred to new 384-well plates (Thermo #262160) and was reacted with 40 μL/well of 2% (w/v) p-dimethylaminobenzaldehyde (Sigma #156417) in glacial acetic acid (Sigma #A6283). The reaction was incubated at room temperature for 10 min and absorbance at 480 nm was read using a PerkinElmer Envision plate reader.
Data in Table 1 were normalized based on positive (−IFNγ) and negative (+IFNγ) controls and EC50 values were calculated from the fit of the dose-response curves to a four-parameter equation. All EC50 values represent geometric mean values of a minimum of four determinations. These assays generally produced results within 2-fold of the reported mean.

Row | Structure (SMILES) | EC50
1 | Cc1ncc(-c2cccn3c(-c4cccc(F)c4F)cnc23)cc1C(=O)Nc1ccc(Cl)cc1 [Example 61, N-(4-chlorophenyl)-5-(3-(2,3-difluorophenyl)imidazo[1,2-a]pyridin-8-yl)-2-methylnicotinamide] | 29.9 nM
2 | Cc1ncc(-c2cccn3c(-c4cccc(F)c4C(F)(F)F)ncc23)cc1C(=O)Nc1ccc(F)cc1 [Example 18, 5-(3-(3-fluoro-2-(trifluoromethyl)phenyl)imidazo[1,5-a]pyridin-8-yl)-N-(4-fluorophenyl)-2-methylnicotinamide] | 211 nM
3 | Cc1nc(-c2cccc(F)c2F)n2cccc(-c3ccc(C(F)(F)F)c(C(=O)Nc4ccc(F)cc4)c3)c12 [Example 44, 5-(3-(2,3-difluorophenyl)-1-methylimidazo[1,5-a]pyridin-8-yl)-N-(4-fluorophenyl)-2-(trifluoromethyl)benzamide] | 16.9 nM
4 | O=C(Nc1ccc(F)cc1)c1cc(-c2cccn3c(-c4ncccn4)ncc23)ccc1C(F)(F)F [Example 45] | 16.4 nM
5 | Cc1ncc(-c2cccn3c(-c4cccc(Cl)c4F)ncc23)cc1C(=O)Nc1ccc(F)cc1 [Example 88] | 49.5 nM
6 | Cc1ccc(-c2cccn3c(-c4ccccc4C)nnc23)cc1C(=O)Nc1ccc(F)cc1 [Example 12, N-(4-fluorophenyl)-2-methyl-5-(3-(o-tolyl)-[1,2,4]triazolo[4,3-a]pyridin-8-yl)benzamide] | 403 nM
7 | Cc1ncc(-c2cccn3c(-c4cccc(Cl)c4Cl)ncc23)cc1C(=O)Nc1ccc(F)cc1 [Example 86, 5-(3-(2,3-dichlorophenyl)imidazo[1,5-a]pyridin-8-yl)-N-(4-fluorophenyl)-2-methylnicotinamide] | 30.8 nM
8 | Cn1nncc1-c1ncc2c(-c3ccc(C(F)(F)F)c(C(=O)Nc4ccc(F)cc4)c3)cccn12 [Example 8, N-(4-fluorophenyl)-5-(3-(1-methyl-1H-1,2,3-triazol-5-yl)imidazo[1,5-a]pyridin-8-yl)-2-(trifluoromethyl)benzamide] | 1200 nM
9 | Cc1ncc(-c2cccn3c(-c4cccc(F)c4F)ncc23)cc1C(=O)Nc1ccc(C#N)c(C(F)(F)F)c1 [Example 59, N-(4-cyano-3-(trifluoromethyl)phenyI)-5-(3-(2,3-difluorophenyl)imidazo[1,5-a]pyridin-8-yl)-2-methylnicotinamide] | 227 nM
10 | Cc1ccn2c(-c3cccc(F)c3F)ncc2c1-c1cnc(C)c(C(=O)Nc2ccc(F)cc2)c1 [Example 77, 5-(3-(2,3-difluorophenyl)-7-methylimidazo[1,5-a]pyridin-8-yl)-N-(4-fluorophenyl)-2-methylnicotinamide] | 730 nM
11 | Cc1ncc(-c2cccn3c(C4CCOCC4)ncc23)cc1C(=O)Nc1ccc(F)cc1 [Example 75, N-(4-fluorophenyl)-2-methyl-5-(3-(tetrahydro-2H-pyran-4-yl)imidazo[1,5-a]pyridin-8-yl)nicotinamide] | 591 nM
12 | Cc1ccc(-c2cccn3c(-c4cn(C)cn4)ncc23)cc1C(=O)Nc1ccc(F)cc1 [Example 14, N-(4-fluorophenyl)-2-methyl-5-(3-(1-methyl-1H-imidazol-4-yl)imidazo[1,5-a]pyridin-8-yl)benzamide] | 322 nM
13 | O=C(Nc1ccc(F)cc1)c1cc(-c2cccn3c(-c4cccc(F)c4F)ncc23)ccc1C(F)(F)F [Example 48, 5-(3-(2,3-difluorophenyl)imidazo[1,5-a]pyridin-8-yl)-N-(4-fluorophenyl)-2-(trifluoromethyl)benzamide] | 15.9 nM
14 | Cc1ncc(-c2cccn3c(-c4ccccc4C(F)(F)F)ncc23)cc1C(=O)Nc1ccc(F)cc1 [Example 16, N-(4-fluorophenyl)-2-methyl-5-(3-(2-(trifluoromethyl)phenyl)imidazo[1,5-a]pyridin-8-yl)nicotinamide] | 239 nM
15 | N#Cc1cccnc1-c1ncc2c(-c3ccc(C(F)(F)F)c(C(=O)Nc4ccc(F)cc4)c3)cccn12 [Example 15, 5-(3-(3-cyanopyridin-2-yl)imidazo[1,5-a]pyridin-8-yl)-N-(4-fluorophenyl)-2-(trifluoromethyl)benzamide] | 274 nM

Further molecules by falling EC50, results first:

Row | EC50 | Structure (SMILES)
16 | 3110 nM | Cc1ccc(-c2nccn3c(-c4ccccc4C)ncc23)cc1C(=O)Nc1ccc(F)cc1 [Example 52, N-(4-fluorophenyl)-2-methyl-5-(3-(o-tolyl)imidazo[1,5-a]pyrazin-8-yl)benzamide]
17 | 2190 nM | Cc1ccc(-c2cccn3c(-c4cnnn4C)ncc23)cc1C(=O)Nc1ccc(F)cc1 [Example 3, N-(4-fluorophenyl)-2-methyl-5-(3-(1-methyl-1H-1,2,3-triazol-5-yl)imidazo[1,5-a]pyridin-8-yl)benzamide]
18 | 888 nM | Cc1ncc(-c2cccn3c(C4CCC4)ncc23)cc1C(=O)Nc1ccc(F)cc1 [Example 91, 5-(3-cyclobutylimidazo[1,5-a]pyridin-8-yl)-N-(4-fluorophenyl)-2-methylnicotinamide]
19 | 237 nM | O=C(Nc1ccc(F)cc1)c1cc(-c2cccn3c(-c4cccnn4)ncc23)ccc1C(F)(F)F [Example 17, N-(4-fluorophenyl)-5-(3-(pyridazin-3-yl)imidazo[1,5-a]pyridin-8-yl)-2-(trifluoromethyl)benzamide]
20 | 135 nM | Cc1cccc(-c2ncc3c(-c4cnc(C)c(C(=O)Nc5ccc(F)cc5)c4)cccn23)c1 [Example 22, N-(4-fluorophenyl)-2-methyl-5-(3-(m-tolyl)imidazo[1,5-a]pyridin-8-yl)nicotinamide]
21 | 85.7 nM | Cc1cnc(-c2cccn3c(-c4cccc(F)c4F)ncc23)cc1C(=O)Nc1ccc(F)cc1 [Example 56, 2-(3-(2,3-difluorophenyl)imidazo[1,5-a]pyridin-8-yl)-N-(4-fluorophenyl)-5-methylisonicotinamide]
22 | 59.9 nM | Cc1ncc(-c2cccn3c(-c4cccc(F)c4F)ncc23)cc1-c1nc2ccccc2[nH]1 [Example 99, 2-(5-(3-(2,3-difluorophenyl)imidazo[1,5-a]pyridin-8-yl)-2-methylpyridin-3-yl)-1H-benzo[d]imidazole]
23 | 57.9 nM | O=C(Nc1ccc(F)cc1)c1cc(-c2cccn3c(-c4cccc(F)c4F)ncc23)ncc1C(F)(F)F [Example 28, 2-(3-(2,3-difluorophenyl)imidazo[1,5-a]pyridin-8-yl)-N-(4-fluorophenyl)-5-(trifluoromethyl)isonicotinamide]
24 | 26.8 nM | Cc1ncc(-c2cccn3c(-c4cccc(F)c4)ncc23)cc1C(=O)Nc1ccc(F)cc1 [Example 35, N-(4-fluorophenyl)-5-(3-(3-fluorophenyl)imidazo[1,5-a]pyridin-8-yl)-2-methylnicotinamide]
25 | 24.2 nM | Cc1ccc(-c2cccn3c(-c4ncccn4)ncc23)cc1C(=O)Nc1ccc(F)cc1 [Example 37, N-(4-fluorophenyl)-2-methyl-5-(3-(pyrimidin-2-yl)imidazo[1,5-a]pyridin-8-yl)benzamide]
26 | 23.3 nM | O=C(Nc1ccc(F)cc1)c1cc(-c2cccn3c(-c4cccc(F)c4)ncc23)ccc1C(F)(F)F [Example 39, N-(4-fluorophenyl)-5-(3-(3-fluorophenyl)imidazo[1,5-a]pyridin-8-yl)-2-(trifluoromethyl)benzamide]
27 | 17.7 nM | Cc1ccc(-c2cccn3c(-c4cccc(F)c4F)ncc23)c(F)c1C(=O)Nc1ccc(F)cc1 [Example 42, 3-(3-(2,3-difluorophenyl)imidazo[1,5-a]pyridin-8-yl)-2-fluoro-N-(4-fluorophenyl)-6-methylbenzamide]
28 | 16.1 nM | O=C(Nc1ccc(F)cc1)c1cc(-c2cccn3c(-c4ncco4)ncc23)ccc1C(F)(F)F [Example 46, N-(4-fluorophenyl)-5-(3-(oxazol-2-yl)imidazo[1,5-a]pyridin-8-yl)-2-(trifluoromethyl)benzamide]
29 | 15.7 nM | Cc1ncc(-c2cccn3c(-c4ccccc4F)ncc23)cc1C(=O)Nc1ccc(F)cc1 [Example 49, N-(4-fluorophenyl)-5-(3-(2-fluorophenyl)imidazo[1,5-a]pyridin-8-yl)-2-methylnicotinamide]
30 | 15.2 nM | O=C(Nc1ccc(F)cc1)c1cc(-c2cccn3c(-c4cccc(F)c4F)ncc23)ccc1C1CC1 [Example 62, 2-cyclopropyl-5-(3-(2,3-difluorophenyl)imidazo[1,5-a]pyridin-8-yl)-N-(4-fluorophenyl)benzamide]
31 | 15 nM | O=C(Nc1ccc(F)cc1)c1cc(-c2cccn3c(-c4cccc(F)c4F)ncc23)ccc1OC(F)(F)F [Example 55]
32 | 12.2 nM | O=C(Nc1ccc(F)cc1)c1cc(-c2cccn3c(-c4cccc(F)c4F)ncc23)ccc1Cl [Example 70, 2-chloro-5-(3-(2,3-difluorophenyl)imidazo[1,5-a]pyridin-8-yl)-N-(4-fluorophenyl)benzamide]
